Measured values as given in patent US20230087766A1, “METHODS OF REACTIVATING LATENT HUMAN IMMUNODEFICIENCY VIRUS AND RELATED COMPOSITIONS” (priority 2017, published 2023).
Entries after “also recorded” stand apart in the source; their conditions may differ.

Experiments:
Format in all cases: cell-based
[1] = tested on: J-Lat A1 cells; assay: Cellular viability by flow cytometry of live/dead staining; conditions: Na-Cro 10 mM to 40 mM
Protocol: An increased concentration of Na-Cro was added in the J-Lat A1 cells, and cellular viability was evaluated by flow cytometry of live/dead staining.

[2] = tested on: latent HIV in U1 cells; assay: p24 ELISA in U1 cells; conditions: day 6
Protocol: Cell culture: J-Lat Al cells (derived from Jurkat cells harboring HIV LTR-Tat-GFP gene) and U1 cells (promonocytic cell line harboring one copy of HIV genome with defective tat gene) were obtained from NIH AIDS Reagent Program and cultured at 37° C. with 5% CO2 in RPM11640 medium containing 10% FBS and 1% penicillin-streptomycin as previously described (see G. Jiang, et al. PLoS Pathogens 11, e1005066 (2015)).
For inhibiting ACSS2 and crotonylation, cells were pretreated with ACSS2 inhibitor, AR12 (SELLECK CHEMICALS™, Houston, Tex.), for 30 minutes, followed by Na-Cro treatment for 4 or 18 hours.

[3] = tested on: latent HIV in primary CD4+ T cells from HIV-infected patients under suppressive ART; assay: HIV transcription by ddPCR in primary CD4+ T cells from HIV-infected patients; conditions: primary CD4+ T cells of 6 patients; 40 mM Na-Cro or 12 nM PEP005; 6 hours; ddPCR
Protocol: Panels A-C illustrate that primary CD4+ T cells were treated with […] PMA 2 plus 2 μg/ml ionomycin, 12 nM PEP005, 40 mM Na-Cro, or 12 nM PEP005 combined with 40 mM Na-Cro for 6 hours. Viral transcription from total RNA was analyzed by RT-ddPCR with primers targeting initiation (TAR region) (see panel A), elongation (long LTR) (see panel B), or full transcription (poly A region) (see panel C) of the HIV genome. Panel D illustrates a working model of epigenetic regulation of HIV latency/transcription by histone crotonylation.
To validate this finding in the ex vivo primary CD4+ T cells from patients the peripheral blood samples from 6 HIV-infected patients under suppressive ART were obtained. They had undetectable plasma viral load (<20 copies/ml plasma) and >400 CD4+ T cell number per […] (see Table 1). Primary CD4+ T cells were treated with PMA/Ionomycin, PEP005, Na-Cro, or PEP005 in combination with Na-Cro for 6 hours. HIV transcription following reactivation was measured by digital droplet PCR (ddPCR) targeting TAR region (initiation), long LTR region (elongation), or Poly A region (full transcription) of HIV genome (see G. Jiang, et al. PLoS pathogens 11, e1005066 (2015); P. Kaiser, et al. Journal of virological methods 242, 1-8 (2017); and L. Shan, et al. Journal of Virology 87, 6521-6525 (2013)).
Primary CD4+ T Cell Isolation, Treatment, and Digital Droplet PCR Assays: Peripheral blood samples were obtained from HIV-infected individuals (age ranging from 46-62 years old) on suppressive ART for >8 years (n=6). The plasma viral loads were below the detective level (<20 copies/ml plasma) and the average CD4+ T cell number was 664.4±180.5 cells/ml. The primary CD4+ T cells were isolated using the EASYSEP™ kit ([…]™ Technologies Inc., Vancouver, BC, Canada) as previously described (see G. Jiang, et al. PLoS pathogens 11, el 005066 (2015) and G. Jiang, et al. AIDS 28, 1555-1566 (2014)). The purified CD4+ T cells were plated at a density of 0.5-1×10^6 cells and treated with Control, 200 ng/ml PMA plus 2 μM lonomycin, 12 nM PEP005, 40 mM Na-Cro, or 12 nM PEP005 plus 40 mM Na-Cro for 6 hours. Cell pellets were collected for RNA isolation. Initiation, elongation, or full transcription of HIV was analyzed with ddPCR assays as reported before (see G. Jiang, et al. PLoS pathogens 11, e1005066 (2015); P. Kaiser, et al. Journal of virological methods 242, 1-8 (2017); and L. Shan, et al. Journal of virology 87, 6521-6525 (2013)).

## C/C=C/C(=O)[O-].[Na+] [Na-Cro, sodium crotonate]
[1]
  cell toxicity: not toxic to immune cells; also recorded: Minimal cell toxicity
[2]; 20 mM Na-Cro
  p24 antigen: over 500 pg/mL
[2]; 40 mM Na-Cro
  p24 antigen: > 2000 pg/mL
[3]
  elongation of HIV transcripts (long LTR), patients responding: all 6 patients
  full-length transcription of HIV (poly A region), patients responding: 4 of the 6 patients
  initiation of HIV transcription (TAR region), patients responding: all 6 patients
